One experiment addresses T1, PGD2 receptor (Homo sapiens, UniProt Q13258).
T1 construct: The platelets mere homogenized using a homogenizer (Ultra-Turrax) followed by centrifugation 3 times at 20,000 rpm, 10 min at 4° C. to obtain a platelet membrane fraction; from tissue; host or cells: human platelets from venous blood of healthy volunteers (membrane fraction)
T1 sequence (Q13258 1-359): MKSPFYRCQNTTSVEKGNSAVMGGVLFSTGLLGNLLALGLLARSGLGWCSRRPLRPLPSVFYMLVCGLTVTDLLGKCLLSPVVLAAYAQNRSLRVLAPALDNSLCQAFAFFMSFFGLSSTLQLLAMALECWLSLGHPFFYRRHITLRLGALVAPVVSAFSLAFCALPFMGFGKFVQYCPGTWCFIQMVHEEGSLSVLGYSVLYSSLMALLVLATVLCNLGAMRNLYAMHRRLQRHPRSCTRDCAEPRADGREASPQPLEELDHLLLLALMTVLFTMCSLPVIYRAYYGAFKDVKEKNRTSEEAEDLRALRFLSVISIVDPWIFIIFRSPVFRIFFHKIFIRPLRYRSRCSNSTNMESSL
Description: Binding to PGD2 receptor ([3H]PGD2, human platelet membrane fraction). The settings on record: 5 nM [3H]PGD2, 4° C., 90 min, read-out: IC50 (concentration required for 50% inhibition of [3H]PGD2 binding). As to the method: (1) Preparation of Human Platelet Membrane Fraction
Blood sample was obtained using a plastic syringe containing 3.8% sodium citrate from the vein of healthy volunteers (adult male and female), put into a plastic test tube and mixed gently by rotation. The sample was then centrifuged at 1800 rpm, 10 min at room temperature and the supernatant containing PRP (platelet-rich plasma) was collected. The PRP was re-centrifuged at 2300 rpm, 22 min at room temperature to obtain platelets. The platelets mere homogenized using a homogenizer (Ultra-Turrax) followed by centrifugation 3 times at 20,000 rpm, 10 min at 4° C. to obtain a platelet membrane fraction. After protein determination, the membrane fraction was adjusted to 2 mg/ml and preserved in a refrigerator at −80° C. until use.
(2) Binding to PGD2 Receptor
To a binding-reaction solution (50 mM Tris/HCl, pH 7.4, 5 mM MgCl2) (0.2 ml) were added the human platelet membrane fraction (0.1 mg) and 5 nM [^3H]PGD2 (115 Ci/mmol). After reacting at 4° C. for 90 min, the mixture was filtered through a glass fiber filter paper and washed several times with cooled saline, to measure the radioactivity retained on the filter paper. The specific binding was calculated by subtracting the non-specific binding (the binding in the presence of 10 μM PGD2) from the total binding. The inhibitory activity of each compound was expressed as the concentration required for 50% inhibition (IC50), which was determined by depicting a substitution curve by plotting the binding ratio (%) in the presence of each compound, where the binding ratio in the absence of a test compound is 100%.

A further experiment relates to PGD2-induced itching. The settings on record: guinea pig; J. Pharmacol. Exp. Ther., 279, 137-142, 1996; cited from earlier work.
For experiment [1], the system named is itching caused by antigens. The note with it: J. Pharmacol. Exp. Ther., 279, 137-142, 1996; cited from earlier work.
In experiment [2] the test system is Compound 48/80-induced scratching behavior. Briefly: Mouse pruritus model: compound 48/80-induced scratching behavior. Type of experiment: in vivo. As to the method:
Investigation on Itch-Related Scratching Behavior in Mouse Pruritus Model: Effect on Compound 48/80-Induced Scratching Behavior Compound 48/80 (10 μg/site, Sigma), a non-immunological mast cell activator, was dissolved in physiological saline and subcutaneously injected into the rostral part of the back of female C57BL mice (8-12 weeks of age, Charles River Japan Inc.). […] Mice usually scratched several times successively in one behavior and a series of scratching was counted as one incidence. Compound Treatment Compound (IA-a-5), suspended in 0.5% methylcellulose, was orally administered 1 hour before the injection of compound 48/80 at a dose of 300 mg/kg. As a control, mice were treated with 0.5% methlycellulose. Results were shown in Table 16. *: P<0.05 versus control (Wilcoxon test).

Experiment [3] deals with Antigen-induced scratching behavior. Briefly: Mouse pruritus model: antigen-induced scratching behavior. Type of experiment: in vivo. The settings on record: female C57BL mice, observed 15 minutes, n = 7, control 51.6 ± 5.3. The procedure: Investigation on Itch-Related Scratching Behavior in Mouse Pruritus Model: Effect on Antigen-Induced Scratching Behavior 50 μl of diluted anti-benzylpenicilloyl (BPO) IgE monoclonal antibody was intradermally injected to the rostral part of the back skin of female C57BL (Table 17, 8-12 weeks of age, Charles River Japan Inc.) or male DS-Nh (Table 18, 7-8 weeks of age, Aburahi Laboratories, Shionogi & Co., Ltd.) mice. Twenty-four hours later, scratching behavior was induced by intravenously injection of physiological saline containing 1 mg of BPO-guinea pig serum albumin. […] In Table 17, the compound was treated in the same manner described in above 1). In Table 18, the compound were dissolved in physiological saline and intraperitoneally injected 30 minutes before antigen challenge. *: P<0.05, **: P<0.01 versus control (Dunnett's test).

The structures appear in SMILES notation. Marks after values point to notes of the source that are not given here.

`CC1(C)[C@H]2C[C@H](C/C=C/CCCC(=O)O)[C@@H](NC(=O)c3csc4ccc(O)cc34)[C@@H]1C2` (single isomer, unassigned) [IA-a-18]: at PGD2 receptor, the IC50 amounted to 0.0012 µM.
`O=C(O)CCCCCCC1C(=O)N(Cc2ccccc2)C(=O)N1NCC(O)C1CCCCC1` (stereo not drawn) [BWA868C]: the “inhibition of itching induced by instillation of PGD2” value with PGD2-induced itching is “inhibited”. In experiment [1], the “inhibition of itching caused by antigens” value was “can not inhibit”.
Consider `CC1(C)[C@H]2C[C@H](C/C=C\CCCC(=O)O)[C@@H](NC(=O)c3csc4ccc(O)cc34)[C@@H]1C2` [IA-a-5, (5Z)-7-[(1R,2R,3S,5S)-2-(5-hydroxybenzo[b]thiophen-3-yl-carbonylamino)-6,6-dimethylbicyclo[3.1.1]hept-3-yl]-5-heptenoic acid], for which, in experiment [2] (Experiment 2, summary in words), the “scratching caused by skin itching derived from the activation of mast cell, compared with the control group” value was “reduced”. For the same compound, the “Mean ± S.E. (Number of scratching)” value is 81.8 ± 17.9* in experiment [2] (female C57BL mice, 300 mg/kg orally 1 hour before compound 48/80, observed 30 minutes, n = 10, control 122.2 ± 12.7); 48.4 ± 12.4 in experiment [3] (100 mg/kg orally); 19.6 ± 6.5* in experiment [3] (300 mg/kg orally).
On to `CC1(C)[C@H]2C[C@H](C/C=C\CCCC(=O)O)[C@@H](NC(=O)c3csc4ccc(F)cc34)[C@@H]1C2` [IA-a-11], for which the IC50 at PGD2 receptor amounted to 0.00027 µM.
The same measure, in the same setting: with `CC1(C)[C@H]2C[C@H](C/C=C/CCCC(=O)O)[C@@H](NC(=O)c3csc4ccc(O)cc34)[C@@H]1C2` [IA-a-17, (5E)-7-[(1R,2R,3S,5S)-2-(5-hydroxybenzo[b]thiophen-3-yl-carbonylamino)-6,6-dimethylbicyclo[3.1.1]hept-3-yl]-5-heptenoic Acid] the figure was 0.032 µM.
Turning to `CC1(C)[C@H]2C[C@@H](C/C=C\CCCC(=O)O)[C@@H](NC(=O)c3csc4ccc(O)cc34)[C@@H]1C2` [IA-c-1], the IC50 at PGD2 receptor was 0.028 µM.
The same measure, in the same setting: to `CC1(C)[C@H]2C[C@@H](C/C=C/CCCC(=O)O)[C@@H](NC(=O)c3csc4ccc(O)cc34)[C@@H]1C2` [IA-c-2] belongs 0.001 µM.
`CC1(C)[C@H]2C[C@H](NC(=O)c3csc4ccc(F)cc34)[C@@H](C/C=C\CCCC(=O)O)[C@@H]1C2` [IB-a′-2]: the IC50 on PGD2 receptor was determined as 0.037 µM.
